From patent publication US12263171B2, “7-, 8-, and 10-substituted amino triazolo quinazoline derivatives as adenosine receptor antagonists, pharmaceutical compositions and their use” (Merck Sharp & Dohme LLC, priority 2018, dated 2025)

How the values were obtained:
[1] = molecular target: human A2a adenosine receptor (Homo sapiens (Human), UniProt P29274); test: A2a receptor affinity radioligand binding assay ([3H] SCH58261, membranes from HEK293 or CHO cells); conditions: unstarred values: radioligand binding
human A2a adenosine receptor, sequence (P29274 whole entry): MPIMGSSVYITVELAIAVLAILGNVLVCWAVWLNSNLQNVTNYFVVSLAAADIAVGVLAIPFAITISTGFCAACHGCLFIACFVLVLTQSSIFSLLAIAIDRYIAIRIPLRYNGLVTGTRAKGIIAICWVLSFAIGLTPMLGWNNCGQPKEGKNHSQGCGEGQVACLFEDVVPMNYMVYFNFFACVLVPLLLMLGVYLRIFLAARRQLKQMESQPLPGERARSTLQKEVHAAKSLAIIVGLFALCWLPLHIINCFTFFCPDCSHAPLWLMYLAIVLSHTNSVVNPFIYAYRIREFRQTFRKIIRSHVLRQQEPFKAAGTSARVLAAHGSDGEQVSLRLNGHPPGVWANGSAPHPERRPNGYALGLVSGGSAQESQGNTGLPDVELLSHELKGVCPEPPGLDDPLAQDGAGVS
Description: The A2a receptor affinity binding assay measured the amount of binding of a tritiated ligand with high affinity for the A2a adenosine receptor to membranes made from HEK293 or CHO cells recombinantly expressing the human A2a adenosine receptor, in the presence of varying concentrations of a compound of the invention.
Measurement of A2a Binding Affinity Using Radioligand Binding
148 μL, (5 μg/mL) membranes (Perkin Elmer, Cat. No. RBHA2aM4001A) and 2 μL compounds of the invention to be tested (test compound) were transferred to individual wells of a 96-well polypropylene assay plate and incubated for 15 to 30 minutes at room temperature. [^3H] SCH58261 ((7-(2-phenylethyl)-5-amino-2-(2-furyl)-pyrazolo-[4,3-e]-1,2,4-triazolo[1,5-c]pyrimidine)) was diluted in assay buffer (50 mM Tris pH 7.4, 10 mM MgCl2, 0.005% Tween20) to a concentration of 4 nM and 50 μL transferred to each well of the assay plate. […] The assay plate was incubated at room temperature for 60 minutes with agitation. […] Filtering was achieved by aspirating the contents of the assay plate for 5 seconds, then washing and aspirating the contents three times with ice-cooled wash buffer (50 mM Tris-HCl pH 7.4, 150 mM NaCl) and allowing the vacuum manifold to dry the plate for 30 seconds. The filter plate was incubated for at least 1 hour at 55° C. and allowed to dry. The bottom of the filter plate was sealed with backing tape. 40 μL. […] The plate was incubated for at least 20 minutes, and then the amount of radioactivity remaining in each well was determined using a TopCown® (Perkin Elmer) scintillation counter. After normalization to total and non-specific binding, the percent effect at each compound concentration was calculated. The plot of percent effect versus the log of compound concentration was analyzed electronically using a 4-parameter logistic fit based on the Levenberg-Marquardt algorithm to generate IC50 values.

[2] = molecular target: human A2b adenosine receptor (Homo sapiens (Human), UniProt P29275); test: A2b radioligand filtration binding assay (tritiated proprietary A2b antagonist, HEK293 membranes); conditions: for IC50: unstarred values: radioligand binding
human A2b adenosine receptor, sequence (P29275 whole entry): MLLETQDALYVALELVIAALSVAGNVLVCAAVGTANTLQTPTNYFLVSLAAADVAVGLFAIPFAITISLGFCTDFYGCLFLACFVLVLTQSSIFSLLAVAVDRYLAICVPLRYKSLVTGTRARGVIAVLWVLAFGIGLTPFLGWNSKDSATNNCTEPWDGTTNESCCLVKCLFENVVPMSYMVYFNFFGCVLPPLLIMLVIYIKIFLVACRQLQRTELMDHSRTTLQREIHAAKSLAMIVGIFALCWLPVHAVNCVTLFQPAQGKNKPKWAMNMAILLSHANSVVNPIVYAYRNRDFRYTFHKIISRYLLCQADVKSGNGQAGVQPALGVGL
Description: Measurement of A2b Binding Affinity
The reported affinity of the compounds of the invention for the human A2b adenosine receptor was determined experimentally using a radioligand filtration binding assay. This assay measures the amount of binding of a tritiated proprietary A2b receptor antagonist, in the presence and absence of a compound of the invention, to membranes made from HEK293 cells recombinantly expressing the human A2b adenosine receptor (Perkin Elmer, Cat. No. ES-013-C).
The filter plate was incubated for at least 1 hour at 55° C. and allowed to dry. The bottom of the filter plate was then sealed with backing tape. […] The plates were then incubated for at least 20 minutes, and then the amount of radioactivity remaining in each well was determined using a TopCount® (Perkin Elmer) scintillation counter. After normalization to total and non-specific binding, the percent effect at each compound concentration was calculated. The plot of percent effect versus the log of compound concentration was analyzed electronically using a 4-parameter logistic fit based on the Levenberg-Marquardt algorithm to generate IC50 values.

SMILES | IC50 [1] | IC50 [2] | A2B binding % inh. @ 10000 nM ([2]; @ 10000 nM, unstarred)
COc1cccc2c1nc(N)n1nc([C@@H]3CCCN(c4cnn([C@H]5CCCC[C@]5(C)O)c4)C3)nc21 [Example 43, (1S,2S)-2-(4-((R)-3-(5-amino-7-methoxy-[1,2,4]triazolo[1,5-c]quinazolin-2-yl)piperidin-1-yl)-1H-pyrazol-1-yl)-1-methylcyclohexan-1-ol] | 0.5 nM | 1.9 nM | –
COc1ccc2c(c1)nc(N)n1nc([C@@H]3CCCN(c4cnn(CC(F)(F)F)c4)C3)nc21 [Example 178, (R)-8-methoxy-2-(1-(1-(2,2,2-trifluoroethyl)-1H-pyrazol-4-yl)piperidin-3-yl)-[1,2,4]triazolo[1,5-c]quinazolin-5-amine] | 2.1 nM | 2.5 nM | –
COc1cccc2c1nc(N)n1nc([C@@H]3CCCN(c4cnn(C(C)C(C)(C)O)c4)C3)nc21 (single isomer, unassigned) [Example 61B] | 0.4 nM | 84 nM | –
COc1cccc2c1nc(N)n1nc([C@@H]3CCCN(c4cnn(C5CCCC5(C)O)c4)C3)nc21 (single isomer, unassigned) [Example 59B] | 0.3 nM | 1.7 nM | –
COc1cccc2c1nc(N)n1nc([C@@H]3CCCN(c4ccn(C)c(=O)c4)C3)nc21 [Example 87, (R)-4-(3-(5-amino-7-methoxy-[1,2,4]triazolo[1,5-c]quinazolin-2-yl)piperidin-1-yl)-1-methylpyridin-2(1H)-one] | 1.5 nM | 858 nM | –
COc1cccc2c1nc(N)n1nc([C@@H]3CCC[C@H](c4cnn(C)c4)C3)nc21 [Example 136D] | 29 nM | 1980 nM | –
COc1cccc2c1nc(N)n1nc([C@@H]3CCCN(c4cnn([C@H]5CCN(C)C5)c4)C3)nc21 [Example 50, 7-methoxy-2-((R)-1-(1-((S)-1-methylpyrrolidin-3-yl)-1H-pyrazol-4-yl)piperidin-3-yl)-[1,2,4]triazolo[1,5-c]quinazolin-5-amine] | 0.9 nM | 160 nM | –
COc1cccc2c1nc(N)n1nc(C3CN(c4cnn(CC(C)(C)O)c4C)CC(F)(F)C3)nc21 (single isomer, unassigned) [Example 159B, (R or S)-1-(4-(5-(5-amino-7-methoxy-[1,2,4]triazolo[1,5-c]quinazolin-2-yl)-3,3-difluoropiperidin-1-yl)-5-methyl-1H-pyrazol-1-yl)-2-methylpropan-2-ol] | 0.1 nM | 792 nM | –
COc1cccc2c1nc(N)n1nc(C3CCC[C@](O)(c4cnn(C)c4)C3)nc21 (single isomer, unassigned) [Example 134A] | 61.8 nM | 7750 nM | –
COc1cccc2c1nc(N)n1nc([C@@H]3CCCN(c4cn(C)cn4)C3)nc21 [Example 76, (R)-7-methoxy-2-(1-(1-methyl-1H-imidazol-4-yl)piperidin-3-yl)-[1,2,4]triazolo[1,5-c]quinazolin-5-amine] | 3.6 nM | 1780 nM | –
COc1ccc2c(c1)nc(N)n1nc([C@@H]3CC[C@H](C)N(c4cnn(C5CCC[C@@H]5O)c4)C3)nc21 (single isomer, unassigned) [Example 210B] | 0.1 nM | 3.2 nM | –
COc1ccc2c(c1)nc(N)n1nc([C@@H]3CCCN(c4ncn(CC(C)(C)O)n4)C3)nc21 [Example 194, (R)-1-(3-(3-(5-amino-8-methoxy-[1,2,4]triazolo[1,5-c]quinazolin-2-yl)piperidin-1-yl)-1H-1,2,4-triazol-1-yl)-2-methylpropan-2-ol] | 6.7 nM | 528 nM | –
COc1cccc2c1nc(N)n1nc([C@@H]3CCCN(c4cnn(C5CCOCC5)c4C(F)F)C3)nc21 [Example 49, (R)-2-(1-(5-(difluoromethyl)-1-(tetrahydro-2H-pyran-4-yl)-1H-pyrazol-4-yl)piperidin-3-yl)-7-methoxy-[1,2,4]triazolo[1,5-e]quinazolin-5-amine] | 0.2 nM | 36 nM | –
COc1ccc2c(c1)nc(N)n1nc([C@@H]3CCCN(c4ccc(C(C)=O)cc4)C3)nc21 [Example 193, (R)-1-(4-(3-(5-amino-8-methoxy-[1,2,4]-triazolo[1,5-c]quinazolin-2-yl)piperidin-1-yl)phenyl)ethan-1-one] | 2.2 nM | 130 nM | –
COc1cccc2c1nc(N)n1nc([C@@H]3CCCN(c4cnn(C5CCC5O)c4)C3)nc21 (single isomer, unassigned) [Example 60A] | 1.8 nM | 281 nM | –
COc1cccc2c1nc(N)n1nc([C@@H]3CCCN(c4cncc(C)n4)C3)nc21 [Example 103, (R)-7-methoxy-2-(1-(6-methylpyrazin-2-yl)piperidin-3-yl)-[1,2,4]triazolo[1,5-c]quinazolin-5-amine] | 1.2 nM | 159 nM | –
COc1ccc2c(c1)nc(N)n1nc([C@@H]3CCCN(c4cnn([C@H](C)C(C)(C)O)c4)C3)nc21 [Example 185A] | 0.8 nM | 98.1 nM | –
COc1cccc2c1nc(N)n1nc([C@@H]3CCCN(c4cn[nH]c4)C3)nc21 [Example 55] | 1.5 nM | 4.7 nM | –
COc1cccc2c1nc(N)n1nc([C@@H]3CCCN(c4cnn(C)n4)C3)nc21 [Example 75, (R)-7-methoxy-2-(1-(2-methyl-2H-1,2,3-triazol-4-yl)piperidin-3-yl)-[1,2,4]triazolo[1,5-c]quinazolin-5-amine] | 1 nM | 11.6 nM | –
COc1cccc2c1nc(N)n1nc([C@@H]3CCC[C@H](c4cnn(CC(C)(C)O)c4)C3)nc21 (single isomer, unassigned) [Example 137, 1-(4-((1S,3R or 1R,3S)-3-(5-amino-7-methoxy-[1,2,4]triazolo[1,5-c]quinazolin-2-yl)cyclohexyl)-1H-pyrazol-1-yl)-2-methylpropan-2-ol] | 120 nM | 8650 nM | –
COc1cccc2c1nc(N)n1nc([C@@H]3CCCN(c4cnn(C5CCCC5OC)c4)C3)nc21 (stereo partly drawn) [Example 56, 7-methoxy-2-((3R)-1-(1-(2-methoxycyclopentyl)-1H-pyrazol-4-yl)piperidin-3-yl)-[1,2,4]triazolo[1,5-c]quinazolin-5-amine] | 0.9 nM | 175 nM | –
COc1ccc2c(c1)nc(N)n1nc([C@H]3C[C@@H](F)CN(c4cn(CC(C)(C)O)nc4C)C3)nc21 [Example 197A, 1-(4-((3S,5R)-3-(5-amino-8-methoxy-[1,2,4]triazolo[1,5-c]quinazolin-2-yl)-5-fluoropiperidin-1-yl)-3-methyl-1H-pyrazol-1-yl)-2-methylpropan-2-ol] | 99 nM | – | 31% inh. @ 10000 nM
COc1cccc2c1nc(N)n1nc([C@@H]3CCCN(c4cnn(C5CS(=O)(=O)C5)c4)C3)nc21 [Example 121, (R)-3-(4-(3-(5-amino-7-methoxy-[1,2,4]triazolo[1,5-c]quinazolin-2-yl)piperidin-1-yl)-1H-pyrazol-1-yl)thietane 1,1-dioxide] | 3.6 nM | 284 nM | –
COc1cccc2c1nc(N)n1nc([C@@H]3CCCN(c4cnn([C@H]5CCCC[C@H]5O)c4)C3)nc21 [Example 24, (1R,2S)-2-(4-((R)-3-(5-amino-7-methoxy-[1,2,4]triazolo[1,5-c]quinazolin-2-yl)piperidin-1-yl)-1H-pyrazol-1-yl)cyclohexan-1-ol] | 2.9 nM | 6.9 nM | –
